Laboratory results: patent US7417156B2, “Orally active, antimalarial, anticancer, artemisinin-derived trioxane dimers” (Johns Hopkins University, priority 2002, dated 2008)

What was measured:
NCI-H23 = assay: NCI 60 cell line panel screen (SRB); type: cell-based, human
NCI-H522 = assay: NCI 60 cell line panel screen (SRB); type: cell-based, human
786-0 = assay: NCI 60 cell line panel screen (SRB); type: cell-based, human
HOP-92 = assay: NCI 60 cell line panel screen (SRB); type: cell-based, human
OVCAR-5 = assay: NCI 60 cell line panel screen (SRB); type: cell-based, human
T-47D = assay: NCI 60 cell line panel screen (SRB); type: cell-based, human
NCI-H322M = type: cell-based
SK-MEL-28 = assay: NCI 60 cell line panel screen (SRB); type: cell-based, human
UACC-257 = assay: NCI 60 cell line panel screen (SRB); type: cell-based, human; details: UACC-257 (Melanoma)
HCT-15 = assay: NCI 60 cell line panel screen (SRB); type: cell-based, human
KM12 = assay: NCI 60 cell line panel screen (SRB); type: cell-based, human
HL-60(TB) = assay: NCI 60 cell line panel screen (SRB); type: cell-based, human
M14 = assay: NCI 60 cell line panel screen (SRB); type: cell-based, human
TK-10 = assay: NCI 60 cell line panel screen (SRB); type: cell-based, human
EKVX = assay: NCI 60 cell line panel screen (SRB); type: cell-based, human
MCF7 = assay: NCI 60 cell line panel screen (SRB); type: cell-based, human
HS 578T = assay: NCI 60 cell line panel screen (SRB); type: cell-based, human
SF-268 = assay: NCI 60 cell line panel screen (SRB); type: cell-based, human
BT-549 = assay: NCI 60 cell line panel screen (SRB); type: cell-based, human
U251 = assay: NCI 60 cell line panel screen (SRB); type: cell-based, human
COLO 205 = assay: NCI 60 cell line panel screen (SRB); type: cell-based, human
IGROVI = assay: NCI 60 cell line panel screen (SRB); type: cell-based, human
NCI/ADR-RES = assay: NCI 60 cell line panel screen (SRB); type: cell-based, human
A549/ATCC = assay: NCI 60 cell line panel screen (SRB); type: cell-based, human
HT29 = assay: NCI 60 cell line panel screen (SRB); type: cell-based, human
CCRF-CEM = assay: NCI 60 cell line panel screen (SRB); type: cell-based, human

## C[C@@H]1CC[C@H]2[C@@H](C)C(CC(O)(CC3OC4O[C@]5(C)CC[C@H]6[C@H](C)CC[C@@H]([C@H]3C)C46OO5)c3ccc(C(=O)O)cc3)OC3O[C@]4(C)CCC1C32OO4 (some centres unmarked) [Compound 11b, bis-trioxane tertiary alcohol benzoic acid]
NCI-H23; NCI-H23 (Non-Small Cell Lung Cancer), LC50: PG=−50
  Log10LC50: >−4.30 log10M
NCI-H23; NCI-H23 (Non-Small Cell Lung Cancer), TGI: PG=0
  Log10TGI50: −4.63 log10M
NCI-H23; Non-Small Cell Lung Cancer, NCI-H23
  Log10GI50: −8.19
NCI-H522; NCI-H522 (Non-Small Cell Lung Cancer), TGI: PG=0
  Log10TGI50: >−4.30 log10M
NCI-H522; NCI-H-522 (Non-Small Cell Lung Cancer), LC50: PG=−50
  Log10LC50: >−4.30 log10M
NCI-H522; Non-Small Cell Lung Cancer, NCI-H522
  Log10GI50: −6.54
786-0; 786-0 (Renal Cancer), LC50: PG=−50
  Log10LC50: >−4.30 log10M
786-0; 786-0 (Renal Cancer), TGI: PG=0
  Log10TGI50: >−4.30 log10M
786-0; Renal Cancer, 786-0
  Log10GI50: −7.17
HOP-92; HOP-92 (Non-Small Cell Lung Cancer), LC50: PG=−50
  Log10LC50: >−4.30 log10M
HOP-92; HOP-92 (Non-Small Cell Lung Cancer), TGI: PG=0
  Log10TGI50: >−4.30 log10M
HOP-92; Non-Small Cell Lung Cancer, HOP-92
  Log10GI50: −7.43
OVCAR-5; OVCAR-5 (Ovarian Cancer), LC50: PG=−50
  Log10LC50: >−4.30 log10M
OVCAR-5; OVCAR-5 (Ovarian Cancer), TGI: PG=0
  Log10TGI50: −6.95 log10M
OVCAR-5; Ovarian Cancer, OVCAR-5
  Log10GI50: <−8.30
T-47D; Breast Cancer, T-47D
  Log10GI50: <−8.30
T-47D; T-47D (Breast Cancer), LC50: PG=−50
  Log10LC50: >−4.30 log10M
T-47D; T-47D (Breast Cancer), TGI: PG=0
  Log10TGI50: >−4.30 log10M
NCI-H322M
  Log10GI50: −6.72
  Log10TGI50: >−4.30 log10M
NCI-H322M; NCI-H322M (Non-Small Cell Lung Cancer), LC50: PG=−50
  Log10LC50: >−4.30 log10M
SK-MEL-28; Melanoma, SK-MEL-28
  Log10GI50: −6.40
SK-MEL-28; SK-MEL-28 (Melanoma), LC50: PG=−50
  Log10LC50: >−4.30 log10M
SK-MEL-28; SK-MEL-28 (Melanoma), TGI: PG=0
  Log10TGI50: >−4.30 log10M
UACC-257; LC50: PG=−50
  Log10LC50: >−4.30 log10M
UACC-257; TGI: PG=0
  Log10TGI50: >−4.30 log10M
HCT-15; Colon Cancer, HCT-15
  Log10GI50: <−8.30
HCT-15; HCT-15 (Colon Cancer), LC50: PG=−50
  Log10LC50: >−4.30 log10M
HCT-15; HCT-15 (Colon Cancer), TGI: PG=0
  Log10TGI50: −6.70 log10M
KM12; Colon Cancer, KM12
  Log10GI50: <−8.30
KM12; KM12 (Colon Cancer), LC50: PG=−50
  Log10LC50: −5.95 log10M
KM12; KM12 (Colon Cancer), TGI: PG=0
  Log10TGI50: <−8.30 log10M
HL-60(TB); HL-60(TB) (Leukemia), LC50: PG=−50
  Log10LC50: −4.55 log10M
HL-60(TB); HL-60(TB) (Leukemia), TGI: PG=0
  Log10TGI50: −8.11 log10M
HL-60(TB); Leukemia, HL-60(TB)
  Log10GI50: <−8.30
M14; M14 (Melanoma), LC50: PG=−50
  Log10LC50: >−4.30 log10M
M14; M-14 (Melanoma), TGI: PG=0
  Log10TGI50: >−4.30 log10M
M14; Melanoma, M14
  Log10GI50: −7.81
TK-10; Renal Cancer, TK-10
  Log10GI50: −7.81
TK-10; TK-10 (Renal Cancer), LC50: PG=−50
  Log10LC50: >−4.30 log10M
TK-10; TK-10 (Renal Cancer), TGI: PG=0
  Log10TGI50: −5.86 log10M
EKVX; EKVX (Non-Small Cell Lung Cancer), LC50: PG=−50
  Log10LC50: >−4.30 log10M
EKVX; EKVX (Non-Small Cell Lung Cancer), TGI: PG=0
  Log10TGI50: >−4.30 log10M
EKVX; Non-Small Cell Lung Cancer, EKVX
  Log10GI50: −4.79
MCF7; Breast Cancer, MCF7
  Log10GI50: <−8.30
MCF7; MCF7 (Breast Cancer), LC50: PG=−50
  Log10LC50: >−4.30 log10M
MCF7; MCF7 (Breast Cancer), TGI: PG=0
  Log10TGI50: >−4.30 log10M
HS 578T; Breast Cancer, HS 578T
  Log10GI50: −5.15
HS 578T; HS 578T (Breast Cancer), LC50: PG=−50
  Log10LC50: >−4.30 log10M
HS 578T; HS 578T (Breast Cancer), TGI: PG=0
  Log10TGI50: >−4.31 log10M
SF-268; CNS Cancer, SF-268
  Log10GI50: −7.72
SF-268; SF-268 (CNS Cancer), LC50: PG=−50
  Log10LC50: >−4.30 log10M
SF-268; SF-268 (CNS Cancer), TGI: PG=0
  Log10TGI50: >−4.30 log10M
BT-549; BT-549 (Breast Cancer), LC50: PG=−50
  Log10LC50: >−4.30 log10M
BT-549; BT-549 (Breast Cancer), TGI: PG=0
  Log10TGI50: −5.32 log10M
BT-549; Breast Cancer, BT-549
  Log10GI50: −5.82
U251; CNS Cancer, U251
  Log10GI50: <−8.30
U251; U251 (CNS Cancer), LC50: PG=−50
  Log10LC50: >−4.30 log10M
U251; U251 (CNS Cancer), TGI: PG=0
  Log10TGI50: −7.39 log10M
COLO 205; COLO 205 (Colon Cancer), LC50: PG=−50
  Log10LC50: −5.28 log10M
COLO 205; COLO 205 (Colon Cancer), TGI: PG=0
  Log10TGI50: −6.99 log10M
COLO 205; Colon Cancer, COLO 205
  Log10GI50: <−8.30
IGROVI; IGROVI (Ovarian Cancer), LC50: PG=−50
  Log10LC50: >−4.30 log10M
IGROVI; IGROVI (Ovarian Cancer), TGI: PG=0
  Log10TGI50: −4.50 log10M
IGROVI; Ovarian Cancer, IGROVI
  Log10GI50: −5.98
NCI/ADR-RES; Breast Cancer, NCI/ADR-RES
  Log10GI50: −6.84
NCI/ADR-RES; NCI/ADR-RES (Breast Cancer), LC50: PG=−50
  Log10LC50: >−4.30 log10M
NCI/ADR-RES; NCI/ADR-RES (Breast Cancer), TGI: PG=0
  Log10TGI50: >−4.30 log10M
A549/ATCC; A549/ATCC (Non-Small Cell Lung Cancer), LC50: PG=−50
  Log10LC50: >−4.30 log10M
A549/ATCC; A549/ATCC (Non-Small Cell Lung Cancer), TGI: PG=0
  Log10TGI50: >−4.30 log10M
A549/ATCC; Non-Small Cell Lung Cancer, A549/ATCC
  Log10GI50: −5.69
HT29; Colon Cancer, HT29
  Log10GI50: <−8.30
HT29; HT29 (Colon Cancer), LC50: PG=−50
  Log10LC50: >−4.30 log10M
HT29; HT29 (Colon Cancer), TGI: PG=0
  Log10TGI50: >−4.30 log10M
CCRF-CEM; CCRF-CEM (Leukemia), LC50: PG=−50
  Log10LC50: >−4.30 log10M
CCRF-CEM; CCRF-CEM (Leukemia), TGI: PG=0
  Log10TGI50: >−4.30 log10M
CCRF-CEM; Leukemia, CCRF-CEM
  Log10GI50: −8.07
